Experiments:
Type in all cases: cell-based
[1] = test system: E.coli; test: Quantitative germ count (re-isolation, surface method) after inoculating the test preparation; conditions: Ausgangskeimzahl 2,7 x 10^5 KBE/ml
[2] = test system: H.influenzae; test: as above; conditions: Ausgangskeimzahl 2,8 x 10^5 KBE/ml
How it was run: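 Surviving germs were counted by the surface method: an aliquot was spiral-plated on Kochblut-Agar and incubated at 33±2°C for max. 4 Tage, giving re-isolated counts in KBE/ml with a detection limit of 100 KBE/ml. Initial germ counts were also set by spiral-plater surface plating. The H. influenzae strain was pretested biochemically for identity and purity.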

[3] = test system: S.aureus; test: as above; conditions: Ausgangskeimzahl 2,6 x 10^5 KBE/ml
How it was run: (§1)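 Test preparations (5 ml) inoculated with ca. 10^5 CFU/ml of each strain, one tube per time point. After 2, 6, 8, 24, 32, 48 and 72 h, cells pelleted, washed and resuspended in NaCl-peptone buffer, then spiral-plated on Caso agar and incubated at 33±2 °C up to 4 days. Detection limit 100 CFU/ml.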

[4] = test system: Sc. pneumoniae; test: as above; conditions: Ausgangskeimzahl 3,7 x 10^5 KBE/ml
How it was run: as §1

[5] = test system: S.epidermidis; test: as above; conditions: Ausgangskeimzahl 2,1 x 10^5 KBE/ml
How it was run: as §1

[6] = test system: E.coli; test: Qualitative examination: enrichment of the inoculated test preparation in broth
How it was run: (§2)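 Strains from lyophilisate, subcultured on Caso or cooked-blood agar, identity checked biochemically. Each substance spiked at ca. 10^5 CFU/ml; one separate tube per time point (2, 6, 8, 24, 32, 48, 72 h). Washed twice by centrifugation, then enriched in broth at 33±2°C, max 4 days.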

[7] = test system: S.aureus; test: as above
How it was run: as §2

[8] = test system: S.epidermidis; test: as above
How it was run: as §2

[9] = test system: Sc. pneumoniae; test: as above
How it was run: as §2

[10] = test system: H.influenzae; test: as above
How it was run: as §2

[11] = test system: P.aeruginosa; test: as above
How it was run: as §2

CCCCCCCCCCCC[N+](C)(C)Cc1ccccc1 [Benzalkoniumchlorid 0,005 Gew.-%, Benzododeciniumchlorid]
Ergebnis der Reisolierung (in KBE/ml) ([1]; 2 h after inoculation): <100 KBE/ml
Ergebnis der Reisolierung (in KBE/ml) ([1]; 4 h after inoculation): <100 KBE/ml
Ergebnis der Reisolierung (in KBE/ml) ([1]; 6 h after inoculation): <100 KBE/ml
Ergebnis der Reisolierung (in KBE/ml) ([1]; 8 h after inoculation): <100 KBE/ml
Ergebnis der Reisolierung (in KBE/ml) ([1]; 24 h after inoculation): <100 KBE/ml
Ergebnis der Reisolierung (in KBE/ml) ([1]; 32 h after inoculation): <100 KBE/ml
Ergebnis der Reisolierung (in KBE/ml) ([1]; 48 h after inoculation): <100 KBE/ml
Ergebnis der Reisolierung (in KBE/ml) ([1]; 72 h after inoculation): <100 KBE/ml
Ergebnis der Reisolierung (in KBE/ml) ([2]; 2 h after inoculation): <100 KBE/ml
Ergebnis der Reisolierung (in KBE/ml) ([2]; 4 h after inoculation): <100 KBE/ml
Ergebnis der Reisolierung (in KBE/ml) ([2]; 6 h after inoculation): <100 KBE/ml
Ergebnis der Reisolierung (in KBE/ml) ([2]; 8 h after inoculation): <100 KBE/ml
Ergebnis der Reisolierung (in KBE/ml) ([2]; 24 h after inoculation): <100 KBE/ml
Ergebnis der Reisolierung (in KBE/ml) ([2]; 32 h after inoculation): <100 KBE/ml
Ergebnis der Reisolierung (in KBE/ml) ([2]; 48 h after inoculation): <100 KBE/ml
Ergebnis der Reisolierung (in KBE/ml) ([2]; 72 h after inoculation): <100 KBE/ml
Ergebnis der Reisolierung (in KBE/ml) ([3]; 2 h after inoculation): <100 KBE/ml
Ergebnis der Reisolierung (in KBE/ml) ([3]; 4 h after inoculation): <100 KBE/ml
Ergebnis der Reisolierung (in KBE/ml) ([3]; 6 h after inoculation): <100 KBE/ml
Ergebnis der Reisolierung (in KBE/ml) ([3]; 8 h after inoculation): <100 KBE/ml
Ergebnis der Reisolierung (in KBE/ml) ([3]; 24 h after inoculation): <100 KBE/ml
Ergebnis der Reisolierung (in KBE/ml) ([3]; 32 h after inoculation): <100 KBE/ml
Ergebnis der Reisolierung (in KBE/ml) ([3]; 48 h after inoculation): <100 KBE/ml
Ergebnis der Reisolierung (in KBE/ml) ([3]; 72 h after inoculation): <100 KBE/ml
Ergebnis der Reisolierung (in KBE/ml) ([4]; 2 h after inoculation): <100 KBE/ml
Ergebnis der Reisolierung (in KBE/ml) ([4]; 4 h after inoculation): <100 KBE/ml
Ergebnis der Reisolierung (in KBE/ml) ([4]; 6 h after inoculation): <100 KBE/ml
Ergebnis der Reisolierung (in KBE/ml) ([4]; 8 h after inoculation): <100 KBE/ml
Ergebnis der Reisolierung (in KBE/ml) ([4]; 24 h after inoculation): <100 KBE/ml
Ergebnis der Reisolierung (in KBE/ml) ([4]; 32 h after inoculation): <100 KBE/ml
Ergebnis der Reisolierung (in KBE/ml) ([4]; 48 h after inoculation): <100 KBE/ml
Ergebnis der Reisolierung (in KBE/ml) ([4]; 72 h after inoculation): <100 KBE/ml
Ergebnis der Reisolierung (in KBE/ml) ([5]; 2 h after inoculation): <100 KBE/ml
Ergebnis der Reisolierung (in KBE/ml) ([5]; 4 h after inoculation): <100 KBE/ml
Ergebnis der Reisolierung (in KBE/ml) ([5]; 6 h after inoculation): <100 KBE/ml
Ergebnis der Reisolierung (in KBE/ml) ([5]; 8 h after inoculation): <100 KBE/ml
Ergebnis der Reisolierung (in KBE/ml) ([5]; 24 h after inoculation): <100 KBE/ml
Ergebnis der Reisolierung (in KBE/ml) ([5]; 32 h after inoculation): <100 KBE/ml
Ergebnis der Reisolierung (in KBE/ml) ([5]; 48 h after inoculation): <100 KBE/ml
Ergebnis der Reisolierung (in KBE/ml) ([5]; 72 h after inoculation): <100 KBE/ml
Ergebnis der Reisolierung qualitiativ (+/-) nach Anreicherung ([6]; 2 h after inoculation): -
Ergebnis der Reisolierung qualitiativ (+/-) nach Anreicherung ([6]; 4 h after inoculation): -
Ergebnis der Reisolierung qualitiativ (+/-) nach Anreicherung ([6]; 6 h after inoculation): -
Ergebnis der Reisolierung qualitiativ (+/-) nach Anreicherung ([6]; 8 h after inoculation): -
Ergebnis der Reisolierung qualitiativ (+/-) nach Anreicherung ([6]; 24 h after inoculation): -
Ergebnis der Reisolierung qualitiativ (+/-) nach Anreicherung ([6]; 32 h after inoculation): -
Ergebnis der Reisolierung qualitiativ (+/-) nach Anreicherung ([6]; 48 h after inoculation): -
Ergebnis der Reisolierung qualitiativ (+/-) nach Anreicherung ([6]; 72 h after inoculation): -
Ergebnis der Reisolierung qualitiativ (+/-) nach Anreicherung ([7]; 2 h after inoculation): -
Ergebnis der Reisolierung qualitiativ (+/-) nach Anreicherung ([7]; 4 h after inoculation): -
Ergebnis der Reisolierung qualitiativ (+/-) nach Anreicherung ([7]; 6 h after inoculation): -
Ergebnis der Reisolierung qualitiativ (+/-) nach Anreicherung ([7]; 8 h after inoculation): -
Ergebnis der Reisolierung qualitiativ (+/-) nach Anreicherung ([7]; 24 h after inoculation): -
Ergebnis der Reisolierung qualitiativ (+/-) nach Anreicherung ([7]; 32 h after inoculation): -
Ergebnis der Reisolierung qualitiativ (+/-) nach Anreicherung ([7]; 48 h after inoculation): -
Ergebnis der Reisolierung qualitiativ (+/-) nach Anreicherung ([7]; 72 h after inoculation): -
Ergebnis der Reisolierung qualitiativ (+/-) nach Anreicherung ([8]; 2 h after inoculation): -
Ergebnis der Reisolierung qualitiativ (+/-) nach Anreicherung ([8]; 4 h after inoculation): -
Ergebnis der Reisolierung qualitiativ (+/-) nach Anreicherung ([8]; 6 h after inoculation): -
Ergebnis der Reisolierung qualitiativ (+/-) nach Anreicherung ([8]; 8 h after inoculation): -
Ergebnis der Reisolierung qualitiativ (+/-) nach Anreicherung ([8]; 24 h after inoculation): -
Ergebnis der Reisolierung qualitiativ (+/-) nach Anreicherung ([8]; 32 h after inoculation): -
Ergebnis der Reisolierung qualitiativ (+/-) nach Anreicherung ([8]; 48 h after inoculation): -
Ergebnis der Reisolierung qualitiativ (+/-) nach Anreicherung ([8]; 72 h after inoculation): -
Ergebnis der Reisolierung qualitiativ (+/-) nach Anreicherung ([9]; 2 h after inoculation): -
Ergebnis der Reisolierung qualitiativ (+/-) nach Anreicherung ([9]; 4 h after inoculation): -
Ergebnis der Reisolierung qualitiativ (+/-) nach Anreicherung ([9]; 6 h after inoculation): -
Ergebnis der Reisolierung qualitiativ (+/-) nach Anreicherung ([9]; 8 h after inoculation): -
Ergebnis der Reisolierung qualitiativ (+/-) nach Anreicherung ([9]; 24 h after inoculation): -
Ergebnis der Reisolierung qualitiativ (+/-) nach Anreicherung ([9]; 32 h after inoculation): -
Ergebnis der Reisolierung qualitiativ (+/-) nach Anreicherung ([9]; 48 h after inoculation): -
Ergebnis der Reisolierung qualitiativ (+/-) nach Anreicherung ([9]; 72 h after inoculation): -
Ergebnis der Reisolierung qualitiativ (+/-) nach Anreicherung ([10]; 2 h after inoculation): -
Ergebnis der Reisolierung qualitiativ (+/-) nach Anreicherung ([10]; 4 h after inoculation): -
Ergebnis der Reisolierung qualitiativ (+/-) nach Anreicherung ([10]; 6 h after inoculation): -
Ergebnis der Reisolierung qualitiativ (+/-) nach Anreicherung ([10]; 8 h after inoculation): -
Ergebnis der Reisolierung qualitiativ (+/-) nach Anreicherung ([10]; 24 h after inoculation): -
Ergebnis der Reisolierung qualitiativ (+/-) nach Anreicherung ([10]; 32 h after inoculation): -
Ergebnis der Reisolierung qualitiativ (+/-) nach Anreicherung ([10]; 48 h after inoculation): -
Ergebnis der Reisolierung qualitiativ (+/-) nach Anreicherung ([10]; 72 h after inoculation): -
Ergebnis der Reisolierung qualitiativ (+/-) nach Anreicherung ([11]; 2 h after inoculation): -
Ergebnis der Reisolierung qualitiativ (+/-) nach Anreicherung ([11]; 4 h after inoculation): -
Ergebnis der Reisolierung qualitiativ (+/-) nach Anreicherung ([11]; 6 h after inoculation): -
Ergebnis der Reisolierung qualitiativ (+/-) nach Anreicherung ([11]; 8 h after inoculation): -
Ergebnis der Reisolierung qualitiativ (+/-) nach Anreicherung ([11]; 24 h after inoculation): -
Ergebnis der Reisolierung qualitiativ (+/-) nach Anreicherung ([11]; 32 h after inoculation): -
Ergebnis der Reisolierung qualitiativ (+/-) nach Anreicherung ([11]; 48 h after inoculation): -
Ergebnis der Reisolierung qualitiativ (+/-) nach Anreicherung ([11]; 72 h after inoculation): -

Reference: EP1171107B1, “USE OF A PHARMACEUTICAL COMPOSITION IN THE MANUFACTURE OF A MEDICAMENT FOR THE TREATMENT OF PATHOLOGICAL CONDITIONS OF THE EYE CAUSED BY BACTERIA, VIRUSES, FUNGI, YEASTS AND PROTOZOA” (Dr. GERHARD MANN chem.-pharm. Fabrik GmbH, priority 1999, dated 2000)
